Data reported in ChEMBL document CHEMBL1201862, “PubChem BioAssay data set” (2004).
Values joined by “and” are separate entries in the source; they are usually repeats but may differ in a detail not shown here. Equal values may be shown once.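 Protocol summary: plate cells (96-well), add compound at 5 concentrations, incubate 48 h, interpolate endpoints linearly. Abbreviation: GI50, concentration required for 50% inhibition of growth.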 Active and inactive are the calls of the source. Cut-off read from the data, not from the text of the source: active = GI50 up to about 1.1 µM and inactive = higher.

Columns and labels:
Experiment in all cases: growth of human tumour cells (NCI), 48 h
[1] = system: HOP-92
[2] = system: SK-MEL-5
[3] = system: NCI-H23
[4] = system: DU-145
[5] = system: UACC-257
[6] = system: HCC 2998
[7] = system: MOLT-4
[8] = system: SF-268
[9] = system: U-251
[10] = system: MDA-MB-435
[11] = system: T47D
[12] = system: MDA-MB-231
[13] = system: OVCAR-8
[14] = system: ACHN
[15] = system: RXF 393
[16] = system: KM12
[17] = system: Hs-578T
[18] = system: IGROV-1
[19] = system: SK-OV-3
[20] = system: OVCAR-3

Measured: GI50

O=c1c(-c2ccc(Cl)cc2)nnc2n(Cc3ccccc3)c3ccccc3n12
inactive: [1] 14.7 µM | [2] 41.1 µM | [3] 37 µM | [4] > 100 µM | [5] 51.3 µM | [6] > 100 µM | [7] 66.7 µM | [8] 23.3 µM | [9] 23.7 µM | [10] 4.28 µM | [11] 67.9 µM | [12] 20 µM | [13] 45.3 µM | [14] 21.7 µM | [15] 13.2 µM | [16] 28.9 µM | [17] 24 µM | [18] 18.7 µM

CCOC(=O)Nc1ccc2c(c1)c(CCCCCCc1nc3ccccc3c3ccc(NC(=O)OCC)cc13)nc1ccccc12
inactive: [1] 21.8 µM | [19] 31.8 µM | [2] 78.9 µM | [3] > 100 µM | [4] > 100 µM | [5] 47.2 µM | [6] > 100 µM | [7] > 100 µM | [8] 26.5 µM | [10] 59.7 µM | [11] > 100 µM | [12] 30.5 µM | [13] 25.4 µM | [20] 21.3 µM | [14] 39 µM | [15] 47.2 µM | [16] > 100 µM | [17] > 100 µM | [18] > 100 µM

Cc1nc(-c2cc3c(ccc4ccccc43)oc2=O)cs1
inactive: [1] 30.2 µM | [19] 37.8 µM | [2] > 100 µM | [4] > 100 µM | [5] > 100 µM | [6] > 100 µM | [7] > 100 µM | [8] 35.6 µM | [9] 57.9 µM | [10] > 100 µM | [11] > 100 µM | [12] 70.5 µM | [13] 35.5 µM | [14] 63.7 µM | [15] 35.8 µM | [16] > 100 µM | [17] 30.3 µM | [18] 21.5 µM

COc1cc(N(C)C)c(OC)cc1C=C1C=CC=C1
inactive: [1] 61.8 µM | [19] > 100 µM | [2] > 100 µM | [3] > 100 µM | [4] > 100 µM | [6] > 100 µM | [7] 38.6 µM | [8] > 100 µM | [9] > 100 µM | [10] 43.1 µM | [11] 41.3 µM | [12] > 100 µM | [13] > 100 µM | [20] > 100 µM | [14] > 100 µM | [15] > 100 µM | [16] > 100 µM | [17] > 100 µM | [18] > 100 µM

CC(CCOc1ccc2ccc(=O)oc2c1)C1=CC(=O)C(C)(C)O1 (configuration not stated)
inactive: [1] 3.56 µM | [19] 3.53 µM | [2] 5.13 µM | [3] 2.81 µM | [4] 2.39 µM | [5] 6.73 µM | [6] 2.67 µM | [7] 2.12 µM | [8] 1.71 µM | [9] 2.69 µM | [10] 2.56 µM | [11] 2.02 µM | [12] 3.15 µM | [13] 1.96 µM | [20] 3.22 µM | [14] 3.18 µM | [16] 2.17 µM | [17] 2.38 µM | [18] 3.2 µM

C=CC[C@@]12CCC(=O)C=C1CCCC2=O
inactive: [1] > 100 µM | [19] > 100 µM | [2] > 100 µM | [3] > 100 µM | [4] > 100 µM | [5] > 100 µM | [6] > 100 µM | [7] > 100 µM | [8] > 100 µM | [9] > 100 µM | [10] > 100 µM | [11] > 100 µM | [12] > 100 µM | [20] > 100 µM | [14] > 100 µM | [15] > 100 µM | [17] > 100 µM | [18] > 100 µM

O=C(O)Cn1ncn(NC(=O)Cc2ccccc2)c1=S
inactive: [1] > 10 µM | [19] > 10 µM | [2] > 10 µM | [3] > 10 µM | [4] > 10 µM | [5] > 10 µM | [6] > 10 µM | [7] > 10 µM | [8] > 10 µM | [9] > 10 µM | [10] > 10 µM | [11] > 10 µM | [12] > 10 µM | [13] > 10 µM | [20] > 10 µM | [14] > 10 µM | [16] > 10 µM | [17] > 10 µM | [18] > 10 µM

CC1CC(N)=C(C#N)C1(C#N)C#N (configuration not stated)
inactive: [1] > 100 µM | [19] > 100 µM | [3] > 100 µM | [4] > 100 µM | [5] > 100 µM | [6] > 100 µM | [7] > 100 µM | [8] > 100 µM | [9] > 100 µM | [10] > 100 µM | [11] > 100 µM | [12] > 100 µM | [13] > 100 µM | [14] > 100 µM | [15] > 100 µM | [16] > 100 µM | [17] > 100 µM | [18] > 100 µM

CC1(C)OC[C@H](COCOP2(=O)Oc3ccc4ccccc4c3-c3c(ccc4ccccc34)O2)O1
inactive: [1] 14.6 µM | [19] 23.8 µM | [2] 24.4 µM | [3] 15.6 µM | [4] 17.6 µM | [6] 16.9 µM | [7] 15 µM | [8] 16 µM | [9] 18 µM | [10] 13.7 µM | [11] 18.3 µM | [12] 15.7 µM | [13] 25.2 µM | [20] 15.3 µM | [14] 18 µM | [15] > 10 µM | [16] 15.5 µM | [17] 47.5 µM | [18] 23 µM

Cn1cnc2c(sc3nc4ccccc4n32)c1=N
inactive: [1] > 100 µM | [19] > 100 µM | [2] > 100 µM | [3] > 100 µM | [4] > 100 µM | [5] > 100 µM | [6] 17.6 µM | [7] > 100 µM | [8] > 100 µM | [9] > 100 µM | [10] > 100 µM | [11] > 100 µM | [12] > 100 µM | [13] 41.5 µM | [20] > 100 µM | [14] > 100 µM | [15] > 100 µM | [17] 42.7 µM | [18] 22.6 µM

COc1cccc(N(CN2C(=O)CCC2OC)C(C)=O)c1 (configuration not stated)
inactive: [1] > 100 µM | [19] > 100 µM | [2] > 100 µM | [3] > 100 µM | [4] > 100 µM | [5] > 100 µM | [6] > 100 µM | [7] > 100 µM | [8] > 100 µM | [9] > 100 µM | [10] > 100 µM | [11] > 100 µM | [12] > 100 µM | [13] > 100 µM | [20] > 100 µM | [14] > 100 µM | [15] > 100 µM | [16] > 100 µM | [17] > 100 µM

CC1OC(OC2C(OC(=O)[C@]34CCC(C)(C)C[C@H]3C3=CC[C@@H]5[C@@]6(C)CC[C@H](OC7OC(CO)C(O)C(O)C7OC7OC(CO)C(O)C(O)C7O)C(C)(C)[C@@H]6CC[C@@]5(C)[C@]3(C)CC4)OCC(O)C2O)C(O)C(O)C1OC1OCC(O)C(OC2OCC(O)C(O)C2O)C1O (some centres not stated)
inactive: [1] 1.92 µM and 2.15 µM | [19] 12.6 µM and 13.1 µM | [2] 2.82 µM and 3.24 µM | [3] 2.42 µM and 3.1 µM | [4] 8.11 µM and 7.05 µM | [5] 2.22 µM and 2.33 µM | [6] 2 µM and 1.76 µM | [8] 6.03 µM and 5.07 µM | [9] 6.76 µM and 9.84 µM | [10] 1.67 µM and 1.94 µM | [11] 4.13 µM and 6.3 µM | [12] 3.14 µM and 2.84 µM | [13] 7.74 µM and 11.6 µM | [20] 10.7 µM and 6.5 µM | [14] 5.98 µM and 4.8 µM | [15] 9.86 µM and 6.75 µM | [16] 3.74 µM and 3.59 µM | [17] 13.5 µM and 12.9 µM | [18] 11.9 µM and 8.38 µM

N#CCN1c2ccccc2CCC1Cl (configuration not stated)
inactive: [1] > 10 µM | [19] > 10 µM | [2] > 10 µM | [3] > 10 µM | [4] > 10 µM | [5] > 10 µM | [6] > 10 µM | [7] > 10 µM | [8] > 10 µM | [9] > 10 µM | [10] > 10 µM | [11] > 10 µM | [12] > 10 µM | [13] > 10 µM | [20] > 10 µM | [14] > 10 µM | [16] > 10 µM | [17] > 10 µM | [18] > 10 µM

COc1ccc2nc3ccccc3c(NCCCCCN(CCCl)CCCl)c2c1
active: [1] 0.04 µM | [19] 0.192 µM | [2] 0.119 µM | [3] 0.0863 µM | [4] 0.192 µM | [5] 1.03 µM | [6] 0.108 µM | [7] 0.0165 µM | [8] 0.0383 µM | [9] 0.0318 µM | [10] 0.17 µM | [11] < 0.01 µM | [12] 0.257 µM | [13] 0.0274 µM | [20] 0.0675 µM | [14] 0.0266 µM | [16] 0.0933 µM | [17] 0.358 µM | [18] 0.177 µM
